Reference: patent US5109111A, “CRF antagonists” (The Salk Institute for Biological Studies, priority 1990, dated 1992)

Key:
[1] = test system: secretion of ACTH and β-endorphin-like (β-END-LI) immunoactivities; test: hCRF stimulation of ACTH and β-END-LI secretion in vivo in rats
Method: Plasma levels of ACTH and β-END-LI are elevated for at least 5-20 minutes following the intraveneous administration of hCRF to nembutal-anesthesized male rats and to quiescent male or female rats with indwelling intravenous cannulae. […] These antagonists should counteract such effects.

[2] = test system: GnRH-stimulated secretion of LH and FSH; test: Specificity: GnRH-stimulated secretion of LH and FSH; type: cell-based
Text: (§1) Compared to AHC(9-41), a potent CRF antagonist disclosed in U.S. Pat. No. 4,605,642, this peptide was more than 17 times as potent.

ACTH release = test: In vivo duration of lowering ACTH release after iv injection, against the Standard; design: species or system rats
[3] = test system: TRF-stimulated secretion of TSH and prolactin; test: Specificity: TRF-stimulated secretion of TSH and prolactin; type: cell-based
Text: as §1

[4] = test system: GRF-stimulated secretion of GH; test: Specificity: GRF-stimulated secretion of GH; type: cell-based
Text: as §1

Molecule	time plasma levels of ACTH and β-END-LI are elevated ([1]; intravenous hCRF, nembutal-anesthetized male rats and quiescent cannulated male or female rats)	stimulation of secretion of ACTH and β-END-LI in vivo ([1]; several rat preparations)	effect on GnRH-stimulated secretion of LH and FSH [2]	duration of bioactivity (lowering ACTH release) (ACTH release; dosages of 0.5 mg, two runs)	duration of effectiveness in lowering ACTH release (ACTH release; dose of 0.1 mg)	effect on TRF-stimulated secretion of TSH and prolactin [3]	effect on GRF-stimulated secretion of GH [4]
CC[C@H](C)[C@H](NC(=O)[C@@H](NC(=O)[C@H](CCC(=O)O)NC(=O)[C@H](CCSC)NC(=O)[C@H](CC(C)C)NC(=O)[C@H](CCCCN)NC(=O)[C@H](CCCNC(=N)N)NC(=O)[C@H](CC(N)=O)NC(=O)[C@H](CO)NC(=O)[C@H](Cc1c[nH]cn1)NC(=O)[C@H](C)NC(=O)[C@H](CCC(N)=O)NC(=O)[C@H](CCC(N)=O)NC(=O)[C@H](C)NC(=O)[C@H](CC(C)C)NC(=O)[C@H](CCC(N)=O)NC(=O)[C@H](CCC(=O)O)NC(=O)[C@H](C)NC(=O)[C@H](CCCNC(=N)N)NC(=O)[C@H](C)NC(=O)[C@H](CCSC)NC(=O)[C@H](CCC(=O)O)NC(=O)[C@H](CC(C)C)NC(=O)[C@@H](NC(=O)[C@H](CCC(=O)O)NC(=O)[C@H](CCCNC(=N)N)NC(=O)[C@H](CC(C)C)NC(=O)[C@H](CC(C)C)NC(=O)[C@H](Cc1c[nH]cn1)NC(=O)[C@H](Cc1ccccc1)NC(=O)[C@@H](NC(=O)[C@H](CC(C)C)NC(=O)[C@H](CC(=O)O)NC(=O)[C@H](CC(C)C)NC(=O)[C@H](CO)NC(=O)[C@@H](NC(=O)[C@@H]1CCCN1C(=O)[C@@H]1CCCN1C(=O)[C@H](CCC(=O)O)NC(=O)[C@H](CCC(=O)O)NC(=O)[C@@H](N)CO)[C@@H](C)CC)[C@@H](C)O)C(C)C)[C@@H](C)CC)C(N)=O [hCRF]	5 to 20 min	powerful stimulator					
AHC(9-41)			no effect	about 40 minutes	no measurable effect	no effect	no effect
